Test results from patent publication US8530461B2 (Boehringer Ingelheim International GmbH, priority 2011, dated 2013).

Biological target: T1, human ACC2 (Homo sapiens, UniProt O00763)
T1 construct: made in house; host or cells: insect cells (baculoviral expression system)
Assay: ACC2 assay, spectrophotometric 384 well assay (NADH-linked, coupled lactate dehydrogenase/pyruvate kinase)
Assay type: biochemical
Conditions: ACC2 assay; human ACC2 construct lacking 128 N-terminal amino acids; 25° C., 340 nm, 15 minutes; read-out: IC50
Experimental: Spectrophotometric 384 Well Assay
Malonyl CoA formation by acetyl CoA carboxylases is stoichometrically linked to the consumption of ATP. ACC2 activity is measured in a NADH-linked kinetic method measuring ADP generated during the ACC reaction using a coupled lactate dehydrogenase/pyruvate kinase reaction.
For biological testing, a human ACC2 construct which lacks the 128 amino acids at the N-terminus for increased solubility (nt 385-6966 in Genbank entry AJ575592) is cloned. The protein is then expressed in insect cells using a baculoviral expression system. Protein purification is performed by anion exchange.
All compounds are dissolved in dimethyl sulfoxide (DMSO) to a concentration of 10 mM.
Assay reactions are then carried out in 384-well plates, with hACC2 in an appropriate dilution and at final assay concentrations (f.c.) of 100 mM Tris (pH 7.5), 10 mM trisodium citrate, 25 mM KHCO3, 10 mM MgCl2, 0.5 mg/ml BSA, 3.75 mM reduced L-glutathione, 15 U/ml lactate dehydrogenase, 0.5 mM phosphoenolpyruvate, 15 U/ml pyruvate kinase, compounds at different concentrations at final DMSO concentrations of 1%.
The enzymatic reaction is then started by addition of a mixture of NADH, acetyl Coenzyme A (both […].) and ATP (500 uM f.c.). The decrease of the optical density (slope S) is then determined at 25° C. at a wavelength of 340 nm over 15 minutes in a spectrophotometric reader.
Each assay microtiter plate contains wells with vehicle instead of compound as controls for the non-inhibited enzyme (100% CTL; ‘HIGH’) and wells without acetyl-CoA as controls for non-specific NADH degradation (0% CTL; ‘LOW’).
The slope S is used for calculation of % CTL=(S(compound)−S(‘LOW’))/(S(‘HIGH’)−S(‘LOW’))100. Compounds will give values between 100% CTL (no inhibition) and 0% CTL (complete inhibition).
For IC50 value determination, the sample slope in the presence of the test compound after subtraction of the low controls (S(compound)−S(‘LOW’)) are used.
An IC50 value is derived from the compound slopes at different dosages after subtraction of the low controls (S(compound)−S(‘LOW’)) by non-linear regression curve fitting (equation y=(A+((B−A)/(1+((C/x)^D))))).

T1 sequence (O00763 129-2458 limits assumed): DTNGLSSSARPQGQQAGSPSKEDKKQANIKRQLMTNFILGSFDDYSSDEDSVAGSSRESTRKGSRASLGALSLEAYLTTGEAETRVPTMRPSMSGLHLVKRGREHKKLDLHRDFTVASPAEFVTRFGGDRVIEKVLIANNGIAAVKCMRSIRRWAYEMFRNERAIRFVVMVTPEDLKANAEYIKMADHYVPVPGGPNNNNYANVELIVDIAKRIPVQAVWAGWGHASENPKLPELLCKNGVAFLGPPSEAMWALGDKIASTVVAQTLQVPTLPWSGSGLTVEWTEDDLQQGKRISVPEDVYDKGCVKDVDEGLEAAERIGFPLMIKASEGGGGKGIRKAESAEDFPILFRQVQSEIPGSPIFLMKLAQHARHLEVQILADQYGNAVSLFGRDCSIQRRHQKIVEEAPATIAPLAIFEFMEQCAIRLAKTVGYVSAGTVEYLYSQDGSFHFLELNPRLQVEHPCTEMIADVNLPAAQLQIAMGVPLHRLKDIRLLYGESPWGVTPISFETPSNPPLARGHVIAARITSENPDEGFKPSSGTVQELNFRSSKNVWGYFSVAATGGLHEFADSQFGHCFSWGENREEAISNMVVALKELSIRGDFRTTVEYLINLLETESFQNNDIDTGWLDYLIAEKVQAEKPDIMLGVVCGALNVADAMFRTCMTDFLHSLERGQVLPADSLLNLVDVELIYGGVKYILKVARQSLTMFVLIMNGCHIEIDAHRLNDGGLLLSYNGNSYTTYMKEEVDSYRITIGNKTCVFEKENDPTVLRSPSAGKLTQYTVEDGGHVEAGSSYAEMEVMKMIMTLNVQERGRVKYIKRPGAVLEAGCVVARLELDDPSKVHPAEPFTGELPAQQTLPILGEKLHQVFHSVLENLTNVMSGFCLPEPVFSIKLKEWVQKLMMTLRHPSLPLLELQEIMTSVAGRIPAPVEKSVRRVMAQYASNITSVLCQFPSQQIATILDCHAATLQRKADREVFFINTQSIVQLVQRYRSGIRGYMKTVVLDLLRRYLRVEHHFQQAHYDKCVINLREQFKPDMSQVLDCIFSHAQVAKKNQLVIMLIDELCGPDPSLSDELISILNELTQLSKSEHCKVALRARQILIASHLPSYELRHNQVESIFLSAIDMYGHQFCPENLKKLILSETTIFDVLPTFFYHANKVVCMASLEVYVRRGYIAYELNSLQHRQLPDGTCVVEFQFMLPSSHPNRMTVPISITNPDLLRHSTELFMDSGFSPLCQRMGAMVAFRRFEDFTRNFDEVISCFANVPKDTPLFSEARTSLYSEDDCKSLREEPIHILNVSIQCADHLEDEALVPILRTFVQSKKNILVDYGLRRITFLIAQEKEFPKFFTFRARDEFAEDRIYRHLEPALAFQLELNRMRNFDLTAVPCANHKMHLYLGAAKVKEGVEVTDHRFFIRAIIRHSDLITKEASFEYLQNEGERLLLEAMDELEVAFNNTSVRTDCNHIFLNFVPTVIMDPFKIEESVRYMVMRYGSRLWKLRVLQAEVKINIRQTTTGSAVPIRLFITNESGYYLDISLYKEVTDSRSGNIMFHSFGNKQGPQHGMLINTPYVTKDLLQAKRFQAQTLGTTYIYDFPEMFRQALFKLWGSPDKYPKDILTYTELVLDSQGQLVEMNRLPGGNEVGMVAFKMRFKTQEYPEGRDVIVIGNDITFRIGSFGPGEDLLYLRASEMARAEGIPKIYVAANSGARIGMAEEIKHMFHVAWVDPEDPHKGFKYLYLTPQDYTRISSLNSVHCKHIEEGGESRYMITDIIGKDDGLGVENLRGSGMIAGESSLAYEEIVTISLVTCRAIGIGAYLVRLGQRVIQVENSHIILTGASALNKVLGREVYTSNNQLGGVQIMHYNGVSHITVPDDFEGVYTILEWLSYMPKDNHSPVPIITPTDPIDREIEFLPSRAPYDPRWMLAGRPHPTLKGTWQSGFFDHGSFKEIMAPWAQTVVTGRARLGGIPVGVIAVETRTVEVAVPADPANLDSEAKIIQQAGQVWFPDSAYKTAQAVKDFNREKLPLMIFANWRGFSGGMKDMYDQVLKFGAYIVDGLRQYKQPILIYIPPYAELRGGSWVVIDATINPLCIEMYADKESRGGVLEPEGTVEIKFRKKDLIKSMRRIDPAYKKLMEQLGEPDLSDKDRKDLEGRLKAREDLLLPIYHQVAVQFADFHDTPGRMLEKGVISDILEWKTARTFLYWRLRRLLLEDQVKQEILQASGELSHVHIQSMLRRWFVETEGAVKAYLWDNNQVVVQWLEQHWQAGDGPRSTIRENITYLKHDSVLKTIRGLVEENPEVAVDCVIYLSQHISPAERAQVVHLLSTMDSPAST

Row | Structure (SMILES) | IC50 [nM]
1 | CCOc1ccc(OC2CN(c3ccc([C@H](C)NC(=O)C4CCC4)cc3)C2)cc1 [Example 1.7] | 170
2 | CCOc1ccc(OC2CN(c3ccc([C@H](C)NC(=O)N4CCC4)cc3)C2)cc1 [Example 4.11] | 2370
3 | COc1ccc(OC2CN(c3ccc([C@H](C)NC(C)=O)cc3)C2)c(F)c1 [Example 10.4] | 280
4 | CCOc1ccc(OC2CN(c3ccc([C@H](C)NC(C)=O)cc3)C2)c(F)c1F [Example 10.7] | 200
5 | CCOc1ccc(OC2CN(c3ccc([C@H](C)NC(C)=O)cc3)C2)cc1 [Example 9.2] | 90
6 | CCOc1ccc(OC2CN(c3ccc([C@H](C)NC(=O)c4coc(NC(C)=O)n4)cc3)C2)cc1 [Example 1.72] | 1190
7 | CCOc1ccc(OC2CN(c3ccc([C@H](C)NC(=O)C4CNC(=O)C4)cc3)C2)cc1 (stereo partly drawn) [Example 1.57] | 1300
8 | CC(=O)N[C@@H](C)c1ccc(N2CC(Oc3cccc(C4CCC4)n3)C2)cc1 [Example 12.14] | 220
9 | CCOc1ccc(OC2CN(c3ccc([C@H](C)NC(=O)c4cnc(NC(C)=O)s4)cc3)C2)cc1 [Example 1.60] | 320
10 | CCOc1ccc(OC2CN(c3ccc([C@H](C)NC(=O)COC)cc3)C2)cc1 [Example 1.3] | 1040
11 | CC(=O)N[C@@H](C)c1ccc(N2CC(Oc3ccc(C(C)(C)C)cc3)C2)cc1 [Example 6.1, (S)—N-(1-{4-[3-(4-tert-Butyl-phenoxy)-azetidin-1-yl]-phenyl}-ethyl)-acetamide] | 260
12 | CCC(=O)N[C@@H](C)c1ccc(N2CC(Oc3ccc(OCC4CC4)cc3)C2)cc1 [Example 1.88] | 100
13 | CCOc1ccc(OC2CN(c3ccc([C@H](C)NC(=O)c4cncn4C)cc3)C2)cc1 [Example 1.34] | 2060
14 | CC(=O)N[C@@H](C)c1ccc(N2CC(Oc3ccc4c(c3)OCO4)C2)cc1 [Example 10.13] | 320
15 | CCOc1ccc(OC2CN(c3ccc([C@H](C)NC(=O)c4c(C)noc4N)cc3)C2)cc1 [Example 1.30] | 740
16 | C[C@H](NC(=O)N(C)C)c1ccc(N2CC(Oc3ccc(OCC4CC4)cc3)C2)cc1 [Example 4.15] | 70
17 | CCOc1ccc(OC2CN(c3ccc([C@H](C)NC(=O)c4ccnn4C)cc3)C2)cc1 [Example 2.2] | 790
18 | CCOc1ccc(OC2CN(c3ccc([C@H](C)NC(=O)c4sc(NC(C)=O)nc4C)cc3)C2)c(F)c1 [Example 8.4, (S)-2-Acetylamino-4-methyl-thiazole-5-carboxylic acid (1-{4-[3-(4-ethoxy-2-fluoro-phenoxy)-azetidin-1-yl]-phenyl}-ethyl)-amide] | 110
19 | CCOc1ccc(OC2CN(c3ccc([C@H](C)NC(=O)C4CC(F)C4)cc3)C2)cc1 (stereo partly drawn) [Example 1.24] | 220
20 | CCOc1ccc(OC2CN(c3ccc([C@H](C)NC(=O)c4sc(NC(C)=O)nc4C)cc3)C2)cc1 [Example 1.32] | 50
21 | CCOc1ccc(OC2CN(c3ccc([C@H](C)NC(=O)N(C)C4CC4)cc3)C2)cc1 [Example 4.14] | 3450
22 | CC(=O)N[C@@H](C)c1ccc(N2CC(Oc3cc(C(F)(F)F)ccc3F)C2)cc1 [Example 10.17] | 110
23 | CC(=O)N[C@@H](C)c1ccc(N2CC(Oc3ccc(OC4CCC4)cc3)C2)cc1 [Example 9.4] | 40
24 | CCOc1ccc(OC2CN(c3ccc([C@H](C)NC(=O)C(C)(F)F)cc3)C2)cc1 [Example 1.53] | 70
25 | CCOc1ccc(OC2CN(c3ccc([C@H](C)NC(=O)C(C)O)cc3)C2)cc1 (stereo partly drawn) [Example 1.79] | 1720

Row | Structure (SMILES) | IC50 [nM]
26 | CCOc1ccc(OC2CN(c3ccc([C@H](C)NC(=O)C4(O)CC4)cc3)C2)cc1 [Example 1.10] | 3190
27 | CCOc1ccc(OC2CN(c3ccc([C@H](C)NC(=O)N(C)CC4CC4)cc3)C2)cc1 [Example 4.5] | 5570
28 | CCOc1ccc(OC2CN(c3ccc([C@H](C)NC(=O)C4(C(F)(F)F)CC4)cc3)C2)cc1 [Example 1.74] | 410
29 | C[C@H](NC(=O)c1cncs1)c1ccc(N2CC(Oc3ccc(OCC4CC4)cc3)C2)cc1 [Example 1.90] | 90
30 | CCOc1ccc(OC2CN(c3ccc([C@H](C)NC(=O)c4scnc4C)cc3)C2)cc1 [Example 1.38] | 780
31 | C[C@H](NC(=O)C1CC1)c1ccc(N2CC(Oc3ccc(OC(F)(F)F)cc3)C2)cc1 [Example 10.20] | 4400
32 | COc1ccc(OC2CN(c3ccc([C@H](C)NC(C)=O)cc3)C2)cn1 [Example 10.32] | 730
33 | CCOc1ccc(OC2CN(c3ccc([C@H](C)NC(=O)Cn4ccnc4)cc3)C2)cc1 [Example 1.13] | 480
34 | CC(=O)N[C@@H](C)c1ccc(N2CC(Oc3ccc(C)cc3)C2)cc1 [Example 10.14] | 610
35 | CC(=O)N[C@@H](C)c1ccc(N2CC(Oc3ccnc(N4CCOCC4)n3)C2)cc1 [Example 13.1, (S)—N-(1-{4-[3-(2-Morpholin-4-yl-pyrimidin-4-yloxy)-azetidin-1-yl]-phenyl}-ethyl)-acetamide] | 350
36 | CCCC(=O)N[C@@H](C)c1ccc(N2CC(Oc3ccc(OCC)cc3)C2)cc1 [Example 1.6] | 280
37 | CC(=O)N[C@@H](C)c1ccc(N2CC(Oc3ccnc(N4CCCC4)n3)C2)cc1 [Example 13.2, (S)—N-(1-{4-[3-(2-Pyrrolidin-1-yl-pyrimidin-4-yloxy)-azetidin-1-yl]-phenyl}-ethyl)-acetamide] | 60
38 | CCOc1ccc(OC2CN(c3ccc([C@H](C)NC(=O)C(F)(F)F)cc3)C2)cc1 [Example 3.1, (S)—N-(1-{4-[3-(4-Ethoxy-phenoxy)-azetidin-1-yl]-phenyl}-ethyl)-2,2,2-trifluoro-acetamide] | 60
39 | CCOc1ccc(OC2CN(c3ccc([C@H](C)NC(=O)C4(C)COC4)cc3)C2)cc1 [Example 1.23] | 1470
40 | CCOc1ccc(OC2CN(c3ccc([C@H](C)NC(=O)c4cccnc4)cc3)C2)cc1 [Example 1.27] | 1950
41 | C[C@H](NC(=O)c1cn[nH]c1)c1ccc(N2CC(Oc3ccc(OCC4CC4)cc3)C2)cc1 [Example 1.86] | 50
42 | CCOc1ccc(OC2CN(c3ccc([C@H](C)NC(=O)N4CC(O)C4)cc3)C2)cc1 [Example 4.4] | 1610
43 | C[C@H](NC(=O)C1CC1)c1ccc(N2CC(Oc3ccc(OC(C)(C)C)cc3)C2)cc1 [Example 10.22] | 1270
44 | CCNC(=O)N[C@@H](C)c1ccc(N2CC(Oc3ccc(OCC)cc3)C2)cc1 [Example 4.2] | 1540
45 | CCCCC(=O)N[C@@H](C)c1ccc(N2CC(Oc3ccc(OCC)cc3)C2)cc1 [Example 1.65] | 800
46 | CC(=O)N[C@@H](C)c1ccc(N2CC(Oc3cccc(C4CCCC4)n3)C2)cc1 [Example 12.13] | 180
47 | CC(=O)N[C@@H](C)c1ccc(N2CC(Oc3ccnc(C)n3)C2)cc1 [Example 14.3, (S)—N-(1-{4-[3-(2-Methyl-pyrimidin-4-yloxy)-azetidin-1-yl]-phenyl}-ethyl)-acetamide] | 980
48 | CCOc1ccc(OC2CN(c3ccc([C@H](C)NC(=O)c4conc4C)cc3)C2)cc1 [Example 1.14] | 70
49 | CCOc1ccc(OC2CN(c3ccc([C@H](C)NC(=O)c4cncs4)cc3)C2)cc1 [Example 1.85] | 230
50 | CCOc1ccc(OC2CN(c3ccc([C@H](C)NC(=O)C4CC4)cc3)C2)c(F)c1F [Example 10.24] | 2260

Same assay, conditions: IC50, ACC2 assay; human ACC2 construct lacking 128 N-terminal amino acids; 25° C., 340 nm, 15 minutes

Row | Structure (SMILES) | IC50 [nM]
51 | CCOc1ccc(OC2CN(c3ccc([C@H](C)NC(=O)CF)cc3)C2)cc1 [Example 1.16] | 110
